Measured values reported in PubChem BioAssay (NCI).
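Where inhibition never reached the appropriate level, the endpoint shown equals the highest concentration tested. Otherwise, values were interpolated linearly from a five-concentration, 48-hour dose response in 96-well plates. At the GI50, growth is halved. At the TGI there is no net growth.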

Experiments:
Assay in all cases: DTP human tumour cell line panel, 48 h
[1] = test system: BT-549 breast
[2] = test system: HT29 colon
[3] = test system: SF-295 CNS
[4] = test system: OVCAR-5 ovarian
[5] = test system: U251 CNS
[6] = test system: NCI/ADR-RES ovarian
[7] = test system: SF-539 CNS
[8] = test system: SK-MEL-5 melanoma
[9] = test system: 786-0 renal
[10] = test system: CAKI-1 renal
[11] = test system: MOLT-4 leukemia
[12] = test system: SNB-75 CNS
[13] = test system: HL-60(TB) leukemia
[14] = test system: IGROV1 ovarian
[15] = test system: UACC-257 melanoma
[16] = test system: RPMI-8226 leukemia
[17] = test system: K-562 leukemia
[18] = test system: CCRF-CEM leukemia
[19] = test system: MDA-MB-231 breast
[20] = test system: COLO 205 colon
[21] = test system: SK-OV-3 ovarian
[22] = test system: SN12C renal
[23] = test system: A549 NSCLC
[24] = test system: UO-31 renal
[25] = test system: OVCAR-8 ovarian
[26] = test system: SF-268 CNS
[27] = test system: SR leukemia
[28] = test system: HOP-62 NSCLC
[29] = test system: NCI-H226 lung
[30] = test system: RXF 393 renal
[31] = test system: SK-MEL-28 melanoma
[32] = test system: ACHN renal
[33] = test system: OVCAR-4 ovarian
[34] = test system: KM12 colon
[35] = test system: NCI-H23 lung
[36] = test system: NCI-H460 lung
[37] = test system: NCI-H522 lung
[38] = test system: EKVX NSCLC
[39] = test system: PC-3 prostate
[40] = test system: HCT-116 colon
[41] = test system: MCF7 breast
[42] = test system: LOX IMVI melanoma
[43] = test system: HOP-92 NSCLC
[44] = test system: HCT-15 colon
[45] = test system: UACC-62 melanoma
[46] = test system: SNB-19 CNS
[47] = test system: SW-620 colon
[48] = test system: HCC-2998 colon
[49] = test system: TK-10 renal
[50] = test system: MALME-3M melanoma
[51] = test system: A498 renal
[52] = test system: T-47D breast
[53] = test system: DU-145 prostate
[54] = test system: OVCAR-3 ovarian
[55] = test system: HS 578T breast
[56] = test system: MDA-MB-435
[57] = test system: SK-MEL-2 melanoma

Work on `C[C@]12CC[C@H](O)C[C@@H]1CC[C@@H]1[C@@H]2CC[C@@]2(C)[C@H]1CC[C@@H]2[C@](C)(O)CCc1ccc(F)cc1` yielded a GI50 [1] of 3.85 µM, a TGI [1] of 17.5 µM and a GI50 [2] of 6.42 µM. For the same molecule, the TGI [2] was 36.7 µM, the GI50 [3] was 2.43 µM and the TGI [3] was 10.9 µM. The GI50 [4] was 5.64 µM, the TGI [4] was 19.6 µM and the GI50 [5] was 10.9 µM. For the same molecule, the TGI [5] was 31 µM, the GI50 [6] was 2.87 µM and the TGI [6] was 13.9 µM. It also gave a GI50 [7] of 6.94 µM, a TGI [7] of 20.8 µM and a GI50 [8] of 1.32 µM. For the same molecule, the TGI [8] was 6.81 µM, the GI50 [9] was 6.14 µM and the TGI [9] was 21 µM. It also gave a GI50 [10] of 5.43 µM, a TGI [10] of 20.1 µM and a GI50 [11] of 3.21 µM. The TGI [11] was 24.6 µM, the GI50 [12] was 4.07 µM and the TGI [12] was 26.9 µM. It also gave a GI50 [13] of 3.87 µM, a TGI [13] of 24 µM and a GI50 [14] of 6.04 µM. It also gave a TGI [14] of 20.7 µM, a GI50 [15] of 4.53 µM and a TGI [15] of 35.5 µM. It also gave a GI50 [16] of 2.4 µM, a TGI [16] of 43.9 µM and a GI50 [17] of 1.88 µM. For the same molecule, the TGI [17] was > 100 µM, the GI50 [18] was 4.56 µM and the TGI [18] was 59.7 µM. It also gave a GI50 [19] of 5.33 µM, a TGI [19] of 20.5 µM and a GI50 [20] of 8.81 µM. The TGI [20] was 42.4 µM, the GI50 [21] was 16.1 µM and the TGI [21] was 76.2 µM. The GI50 [22] was 3.79 µM, the TGI [22] was 15.7 µM and the GI50 [23] was 5.04 µM. For the same molecule, the TGI [23] was 39.2 µM, the GI50 [24] was 4.43 µM and the TGI [24] was 31.4 µM. For the same molecule, the GI50 [25] was 8.35 µM, the TGI [25] was 62.7 µM and the GI50 [26] was 8.46 µM. For the same molecule, the TGI [26] was 25.4 µM, the GI50 [27] was 2.11 µM and the TGI [27] was 22.3 µM. It also gave a GI50 [28] of 13.1 µM, a TGI [28] of 43.9 µM and a GI50 [29] of 5.97 µM. The TGI [29] was 24.8 µM, the GI50 [30] was 2.46 µM and the TGI [30] was 10.8 µM. It also gave a GI50 [31] of 12.3 µM, a TGI [31] of 26.4 µM and a GI50 [32] of 5.81 µM. For the same molecule, the TGI [32] was 18.9 µM, the GI50 [33] was 1.77 µM and the TGI [33] was 18.4 µM. For the same molecule, the GI50 [34] was 4.22 µM, the TGI [34] was 19.4 µM and the GI50 [35] was 3.78 µM. It also gave a TGI [35] of 18.4 µM, a GI50 [36] of 3.38 µM and a TGI [36] of 14 µM. The GI50 [37] was 4.45 µM, the TGI [37] was 49.4 µM and the GI50 [38] was 2.27 µM. It also gave a TGI [38] of 18.1 µM, a GI50 [39] of 5.02 µM and a TGI [39] of 30.7 µM. It also gave a GI50 [40] of 3.65 µM, a TGI [40] of 16.4 µM and a GI50 [41] of 2.55 µM. It also gave a TGI [41] of 15 µM, a GI50 [42] of 3.41 µM and a TGI [42] of 15.1 µM. The GI50 [43] was 4.22 µM, the TGI [43] was 22.5 µM and the GI50 [44] was 3.82 µM. It also gave a TGI [44] of 18.3 µM, a GI50 [45] of 10.6 µM and a TGI [45] of 26.7 µM. The GI50 [46] was 10.5 µM, the TGI [46] was 25.1 µM and the GI50 [47] was 7.13 µM. It also gave a TGI [47] of 24.1 µM, a GI50 [48] of 9.79 µM and a TGI [48] of 23.8 µM. The GI50 [49] was 16.7 µM, the TGI [49] was 56.4 µM and the GI50 [50] was 17.9 µM. It also gave a TGI [50] of 41.8 µM, a GI50 [51] of 2.4 µM and a TGI [51] of 15.6 µM. It also gave a GI50 [52] of 1.95 µM, a TGI [52] of 45.1 µM and a GI50 [53] of 7.14 µM. It also gave a TGI [53] of 23.7 µM, a GI50 [54] of 4.72 µM and a TGI [54] of 16.7 µM. For the same molecule, the GI50 [55] was 7.71 µM, the TGI [55] was 37.9 µM and the GI50 [56] was 7.84 µM. For the same molecule, the TGI [56] was 25 µM, the GI50 [57] was 11.4 µM and the TGI [57] was 51.9 µM.
